From ChEMBL document CHEMBL1150027, “Apigenin-7-O--D-glucopyranoside, an anti-HIV principle from Kummerowia striata” (Bioorg Med Chem Lett, 1994)
Converted amounts (≈) assume the structure as drawn.

What was measured:
H9 [1] = test: Inhibitory activity against HIV-1 IIIB replication in H9 cell line; format: functional, cell-based; details: Homo sapiens
H9 [2] = test: Inhibitory activity against H9 cells uninfected with HIV-1; format: functional, cell-based; details: Homo sapiens
[3] = Ratio of IC50 to EC50 was expressed as therapeutic index; details: read-out: TI

Structure (SMILES)	EC50 (H9 [1])	IC50 (H9 [2])	selectivity ratio [3]
O=c1cc(-c2ccc(O)cc2)oc2cc(O)cc(O)c12 [APIGENIN]	9 mg/L (≈ 33.3 µM)	35 mg/L (≈ 130 µM)	4
O=c1cc(-c2ccc(O)cc2)oc2cc(O[C@@H]3O[C@H](CO)[C@@H](O)[C@H](O)[C@H]3O)cc(O)c12 [APIGETRIN]	1.8 mg/L (≈ 4.16 µM)	> 100 mg/L	> 55.6
O=c1c(O[C@@H]2O[C@H](CO)[C@@H](O)[C@H](O)[C@H]2O)c(-c2ccc(O)cc2)oc2cc(O)cc(O)c12 [ASTRAGALIN]	80 mg/L (≈ 178 µM)	< 100 mg/L	< 1.25
O=c1c(O)c(-c2ccc(O)c(O)c2)oc2cc(O)cc(O)c12 [QUERCETIN]	1.6 mg/L (≈ 5.29 µM)	< 4 mg/L	< 2.5
